From patent US20160222014A1, “COMPOUNDS FOR REGULATING FAK AND/OR SRC PATHWAYS” (ASANA BIOSCIENCES, LLC, priority 2013, published 2016)
pIC50: −log10 of the molar value.

What follows are molecules tested against T1, recombinant human FAK1 (Homo sapiens, UniProt Q05397) (assay: FAK1 HTRF assay).
T1 construct: fused on or other part: N-terminal 6xHis tag
T1 sequence (Q05397 422-680 limits assumed): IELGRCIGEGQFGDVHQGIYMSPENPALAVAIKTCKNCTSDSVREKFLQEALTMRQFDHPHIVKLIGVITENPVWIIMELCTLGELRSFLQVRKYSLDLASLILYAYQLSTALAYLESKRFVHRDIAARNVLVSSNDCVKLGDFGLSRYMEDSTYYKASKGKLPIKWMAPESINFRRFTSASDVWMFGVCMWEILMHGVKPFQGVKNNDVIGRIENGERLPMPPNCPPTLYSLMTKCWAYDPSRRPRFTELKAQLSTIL
Type: biochemical
Protocol: Active FAK1 was prepared for use in the Homogeneous Time-Resolved Fluorescence (HTRF) assay. Briefly, N-terminal 6 His tagged recombinant human FAK1, from residue 692-end (GenBank accession no. L13616) was expressed by Bacculovirus in sf9 cells. […] A 1.6 mg/mL (45 μM) stock was used in the HTRF assay at a final concentration of 10 nM.
Gastrin precursor (tyr87) biotinylated peptide which contains the residues surrounding tyrosine 87 (EEAY*GWM) of gastrin precursor was obtained (Cell Signaling Tech, Item no. 1310, Lot 7). The peptide was provided at a stock concentration of 6 μM, and used a final concentration of 0.5 μM in the HTRF assay.
10 mM stock in 100 μL Enzyme assay buffer pH7.4 was prepared freshly and used at a final concentration of 10 μM in the assay.
Powders were dissolved in 100% DMSO to a final stock concentration of 10 mM. The volume needed (in μL) to add for 10 mM=mg powder is 10^5/MW of compound. The final compound concentration in the assay plate started at 10 μM.
Pfizer FAK inhibitor PF-562271 (N-methyl-N-(3-(((2-((2-oxoindolin-5-yl)amino)-5-(trifluoromethyl)pyrimidin-4-yl)amino)methyl)pyridin-2-yl)methanesulfonamide) was prepared as per the reported procedure from US Patent Publication No. 2005/256145A1.
Streptavidin-Allophycocyanin was obtained (Prozyme, Cat. No. PJ25S. SA-APC was provided at a stock concentration of 2.06 mg/mL, where APC concentration was 11.6 μM and the streptavidin concentration was 15.5 μM. SA-APC was used at a final concentration of 12 nM in the assay (based on streptavidin concentration).
This reagent was obtained from Perkin ElmerAD0068. Europium-W1024-PT-66 Anti Phospho Tyrosine Ab is a monoclonal IgG1 that recognizes phospho tyrosine peptide. 100 μg/mL stock was used at a final concentration of 0.1 nM in the assay.
• 1. The compound dilutions were made by TECAN liquid handler as per the scheme in FIG. 1. • 2. 16 μL of diluted compound was added to each well of the assay plate using TECAN liquid handler. • 3. 20 μL of substrate mix (biotinylated gastrin precursor) was added into each well of the assay plate manually. • 4. 10 μL of enzyme mix (FAK1) was added to each well except mins. • 5. The plate was incubated at rt for 45 min with shaking. • 6. The HTRF mix was prepared and 75 μL was added to the HTRF plate. • 7. After the incubation was over, 10 μL of the mixture was transferred to the HTRF assay plate and incubated for 45 min at rt with shaking. • 8. The readings were taken in Pherastar in HTRF mode (ext 337 nm, em 665 & 620 nm) • 9. The results were analyzed using Graphpad Prism® software after calculation the z factor signal window and % inhibition. • 10. The IC50 was calculated.
With `COc1cc(Nc2ncc3ccn(Cc4cc(C)ccc4N(C)S(C)(=O)=O)c3n2)ccc1N1CCNCC1` [Example 942] the pIC50 was greater than 7.70. With `COc1cc(Nc2ncc3ccn(Cc4cc(F)ccc4N(C)S(C)(=O)=O)c3n2)ccc1N1CCNCC1` [Example 801] the pIC50 was greater than 7.70. `Cc1ccc(N(C)S(C)(=O)=O)c(Cn2ccc3cnc(Nc4ccc(N5CCNCC5)cc4)nc32)c1` [Example 759, N-methyl-N-(4-methyl-2-((2-((4-(piperazin-1-yl)phenyl)amino)-7H-pyrrolo[2,3-d]pyrimidin-7-yl)methyl)phenyl)methanesulfonamide] was tested, and the pIC50 was greater than 7.70. Work on `COc1ccc(Nc2cc3c(ccn3S(=O)(=O)c3cccc(OC(F)(F)F)c3)cn2)cc1` [Example 53] yielded a pIC50 of less than 6.00. `CNC(=O)c1ccc(Nc2ncc3ccn(Cc4cc(F)ccc4N(C)S(C)(=O)=O)c3n2)cc1` [Example 983] gave a pIC50 greater than 7.70. In the case of `Cc1ccc(N(C)S(C)(=O)=O)c(Cn2ccc3cnc(Nc4ccc(C5CCNCC5)c(C)c4)nc32)c1` [Example 807], the pIC50 was greater than 7.70. With `COc1cc(Nc2ncc3ccn(S(=O)(=O)c4cccc5cccnc45)c3n2)ccc1N1CC2CC1CN2C` (stereo not shown) [Example 439] the pIC50 was greater than 7.70. `CC(=O)Nc1ccc(Nc2cc3c(cn2)c(C)nn3Cc2cccnc2N(C)S(C)(=O)=O)cc1` [Example 72] gave a pIC50 of less than 6.00. Work on `C[C@H]1CN(c2ccc(Nc3ncc4ccn(Cc5cc(C(F)(F)F)ccc5N(C)S(C)(=O)=O)c4n3)cc2)CCN1` [Example 810] yielded a pIC50 greater than 7.70. `CN(C)C1CN(c2ccc(Nc3ncc4ccn(Cc5ccccc5N(C)S(C)(=O)=O)c4n3)cc2)C1` [Example 588] was tested, and the pIC50 was greater than 7.70. `COc1cc(Nc2ncc3ccn(S(=O)(=O)c4cccc5cccnc45)c3n2)ccc1NC(=O)C1CC1` [Example 376] showed a pIC50 greater than 7.70. Molecule `O=C1CCc2cc(Nc3cc4c(cn3)cnn4S(=O)(=O)c3cccc4cccnc34)ccc2N1` [Example 187] has a pIC50 greater than 7.70. In the case of `CSc1cccc(Nc2cc3c(ccn3Cc3cccnc3)cn2)c1` [Example 13], the pIC50 was less than 6.00. For `CN(c1ccc(F)cc1Cn1ccc2cnc(Nc3ccc(N4CCC(N)CC4)cc3)nc21)S(C)(=O)=O` [Example 799], the pIC50 was greater than 7.70. Work on `c1cncc(Cn2ccc3cnc(Nc4ccc5ncsc5c4)cc32)c1` [Example 15] yielded a pIC50 of less than 6.00. `CN1CCN(c2ccc(Nc3ncc4c(n3)N(S(=O)(=O)c3cccc5cccnc35)CC43CC3)cc2)CC1` [Example 499] was tested, and the pIC50 was greater than 7.70. Molecule `CN(c1ccccc1Cn1ccc2cnc(Nc3ccc(NC(=O)C4CC4)cc3)nc21)S(C)(=O)=O` [Example 450] has a pIC50 greater than 7.70. `CN(c1ccc(F)cc1Cn1ccc2cnc(Nc3ccc(N4CCNCC4)cc3)nc21)S(C)(=O)=O` [Example 805] showed a pIC50 greater than 7.70. In the case of `COc1cc(Nc2ncc3ccn(S(=O)(=O)c4cccc5cccnc45)c3n2)ccc1NC(=O)C1CCC1` [Example 373], the pIC50 was greater than 7.70. `CN(c1ncccc1Cn1ccc2cnc(Nc3ccc(S(=O)(=O)C(F)F)cc3)cc21)S(C)(=O)=O` [Example 25] gave a pIC50 of less than 6.00. With `CC(C)C(=O)Nc1ccc(Nc2ncc3ccn(S(=O)(=O)c4cccc5cccnc45)c3n2)cc1` [Example 324] the pIC50 was greater than 7.70. `CN1CCC(Oc2ccc(Nc3ncc4ccn(Cc5ccccc5N(C)S(C)(=O)=O)c4n3)cc2)CC1` [Example 531] gave a pIC50 greater than 7.70. `CC(=O)Nc1cccc(Oc2ncc3ccn(Cc4cccnc4N(C)S(C)(=O)=O)c3n2)c1` [Example 124] showed a pIC50 of less than 6.00. Work on `CN(c1ccc(F)cc1Cn1ccc2cnc(Nc3ccc(N4CCCC(N)C4)cc3)nc21)S(C)(=O)=O` (stereo not shown) [Example 800] yielded a pIC50 greater than 7.70. Work on `COc1cc(Nc2cc3c(ccn3S(=O)(=O)c3ccccc3C#N)cn2)ccc1N1CCN(C)CC1` [Example 492] yielded a pIC50 greater than 7.70. Molecule `CN(c1ccc(F)cc1Cn1ccc2cnc(Nc3ccc4c(c3)CC(=O)N4)nc21)S(C)(=O)=O` [Example 792] has a pIC50 greater than 7.70. `CN(c1ncccc1Cn1ccc2cnc(Nc3ccc(C#N)nc3)cc21)S(C)(=O)=O` [Example 22] was tested, and the pIC50 was less than 6.00. In the case of `CN(c1ccccc1Cn1ccc2cnc(Nc3ccc(OCCN4CCNCC4)cc3)nc21)S(C)(=O)=O` [Example 572], the pIC50 was greater than 7.70. `CC(=O)Nc1cccc(Nc2cc3c(ccn3-c3ccccn3)cn2)c1` [Example 37] showed a pIC50 of less than 6.00. Work on `O=C1CCc2cc(Nc3cc4nn(Cc5ccccc5OC(F)F)cc4cn3)ccc2N1` [Example 67] yielded a pIC50 of less than 6.00. Molecule `C[C@@H]1CN(c2ccc(Nc3ncc4c(n3)N(S(=O)(=O)c3cccc5cccnc35)CC4(C)C)cc2)CCN1` [Example 470, (R)-5,5-dimethyl-N-(4-(3-methylpiperazin-1-yl)phenyl)-7-(quinolin-8-ylsulfonyl)-6,7-dihydro-5H-pyrrolo[2,3-d]pyrimidin-2-amine] has a pIC50 greater than 7.70. `CN(C)C1CCN(c2ccc(Nc3ncc4ccn(Cc5cc(Cl)ccc5N(C)S(C)(=O)=O)c4n3)cc2)CC1` [Example 796] was tested, and the pIC50 was greater than 7.70. `Cc1ccc(N(C)S(C)(=O)=O)c(Cn2ccc3cnc(Nc4ccc(N5CCC(N(C)C)CC5)cc4)nc32)c1` [Example 761] showed a pIC50 greater than 7.70. For `O=S(=O)(c1ccc(Nc2ncc3ccn(Cc4cccnc4)c3n2)cc1)C(F)F` [Example 17], the pIC50 was less than 6.00. In the case of `CN(c1ncccc1Cn1ccc2cnc(Nc3ccc4c(c3)C(=O)NC4=O)nc21)S(C)(=O)=O` [Example 74], the pIC50 was less than 6.00. Molecule `O=C1CCc2cc(Nc3ncc4ccn(S(=O)(=O)c5ccc(OC(F)(F)F)cc5)c4n3)ccc2N1` [Example 41] has a pIC50 of less than 6.00. Work on `Cn1cnc(S(=O)(=O)n2ccc3cnc(Nc4ccc(N5CCNCC5)cc4)nc32)c1` [Example 236] yielded a pIC50 of less than 6.00. `C[C@@H]1CN(c2ccc(Nc3ncc4ccn(Cc5cc(F)ccc5N(C)S(C)(=O)=O)c4n3)cc2)CCN1` [Example 793] showed a pIC50 greater than 7.70. Molecule `CN(c1ccccc1Cn1ccc2cnc(Nc3ccc(N4CCC(C)(O)CC4)cc3)nc21)S(C)(=O)=O` [Example 638] has a pIC50 greater than 7.70. In the case of `COc1cc(Nc2cc3c(ccn3Cc3cccnc3)cn2)cc(OC)c1OC` [Example 6], the pIC50 was less than 6.00. With `CN(c1ccc(C(F)(F)F)cc1Cn1ccc2cnc(Nc3ccc(N4CCNCC4)cc3)nc21)S(C)(=O)=O` [Example 892] the pIC50 was greater than 7.70. `CN(c1ccccc1Cn1ncc2cnc(Nc3ccc(N4CCNCC4)cc3)cc21)S(C)(=O)=O` [Example 222] gave a pIC50 greater than 7.70. `CC(=O)Nc1cccc(Nc2cc3nn(Cc4ccccc4OC(F)F)cc3cn2)c1` [Example 63] was tested, and the pIC50 was less than 6.00. `Cc1ccc(N(C)S(C)(=O)=O)c(Cn2ccc3cnc(Nc4ccc(N5CCNCC5)c(F)c4)nc32)c1` [Example 941] was tested, and the pIC50 was greater than 7.70. In the case of `Cc1ccc(N(C)S(C)(=O)=O)c(Cn2ccc3cnc(Nc4ccc(C5CCNCC5)cc4)nc32)c1` [Example 789], the pIC50 was greater than 7.70. For `Cc1cc(Nc2ncc3ccn(Cc4cc(F)ccc4N(C)S(C)(=O)=O)c3n2)ccc1C1CCNCC1` [Example 782], the pIC50 was greater than 7.70. In the case of `CC(=O)Nc1ccc(Nc2cc3c(ccn3S(=O)(=O)c3ccc(OC(F)(F)F)cc3)cn2)cc1` [Example 47], the pIC50 was less than 6.00. `CNC(=O)c1ccc(Nc2ncc3ccn(Cc4cc(C)ccc4N(C)S(C)(=O)=O)c3n2)cc1` [Example 986] gave a pIC50 greater than 7.70. Molecule `O=S(=O)(c1ccc(Nc2ncc3ccn(Cc4ccccc4OC(F)F)c3n2)cc1)C(F)F` [Example 9] has a pIC50 of less than 6.00. `CN1CCC(NC(=O)c2ccc(Nc3ncc4c(n3)N(S(=O)(=O)c3cccc5cccnc35)CC4(C)C)cc2)CC1` [Example 702] was tested, and the pIC50 was greater than 7.70. `CN(c1ccc(C#N)cc1Cn1ccc2cnc(Nc3ccc(N4CCNCC4)cc3)nc21)S(C)(=O)=O` [Example 715] was tested, and the pIC50 was greater than 7.70. Work on `COc1ccc(N(C)S(C)(=O)=O)c(Cn2ccc3cnc(Nc4ccc(N5CCC(N(C)C)CC5)c(OC)c4)nc32)c1` [Example 703] yielded a pIC50 greater than 7.70. For `CC(=O)Nc1cccc(Nc2ncc3ccn(S(=O)(=O)c4ccc(OC(F)(F)F)cc4)c3n2)c1` [Example 44], the pIC50 was less than 6.00. `O=C1CCc2cc(Nc3ncc4ccn(Cc5ccccc5OC(F)(F)F)c4n3)ccc2N1` [Example 83] was tested, and the pIC50 was greater than 7.70. For `CS(=O)(=O)c1ccc(Nc2cc3c(ccn3S(=O)(=O)c3cccc(OC(F)(F)F)c3)cn2)cc1` [Example 51], the pIC50 was less than 6.00. `CC1(C)CN(S(=O)(=O)c2cccc3cccnc23)c2nc(Nc3ccc(N4CCNCC4)cc3)ncc21` [Example 403] showed a pIC50 greater than 7.70. In the case of `CN1CCCN(c2ccc(Nc3cc4c(ccn4S(=O)(=O)c4ccccc4C#N)cn3)cc2)CC1` [Example 505], the pIC50 was greater than 7.70. `C[C@H]1CN(C)CCN1c1ccc(Nc2ncc3ccn(Cc4ccccc4N(C)S(C)(=O)=O)c3n2)cc1` [Example 495] gave a pIC50 greater than 7.70.
